The target in series [1] is recombinant human DPP1 (rhDPP1) (Homo sapiens (Human), UniProt P53634). Put plainly: Test A2: Fluorescence assay for recombinant human (RH) DPP1. Format: biochemical. Particulars: Test A2 (Examples 36-37); 96.4 pM rhDPP1, 50 μM H-Gly-Arg-AMC, pH 5.0, rt. Here is the method: Test A2: Fluorescence Assay for Recombinant Human (RH) DPP1
The activity of DPP1 was determined by measuring the enzymatic release of aminomethyl coumarin (AMC) from the peptide substrate (H-Gly-Arg-AMC), which leads to an increase in fluorescence intensity at λex=350 nm and λem=450 nm. The assay was carried out in black 384 well plates in a final volume of 10 μl at rt. The assay conditions contained the following: 25 mM piperazine buffer pH 5.0; 50 mM NaCl, 5 mM DTT; 0.005 (v/v) Triton X-100; 50 μM H-Gly-Arg-AMC and 96.4 pM rhDPP1 Potential inhibitors were diluted in DMSO to generate 100× of the final assay concentration. The compounds were tested at 10 concentrations with half-log dilution steps (highest concentration typically 1 μM) and with a final DMSO concentration of 1% (v/v). Routinely, inhibitors were pre-incubated with rhDPP1 for 30 min prior to the addition of the peptide substrate to start the reaction for a further 30 min. After incubation the plates were read in a fluorescence plate reader using the above emission and excitation wavelengths. The pIC50 were determined using a 4-paramater logistic equation in a non-linear curve fitting routine (Smartfit, Genedata Screener®). […]

Series [2] in a line: Test B: In-vitro competitive aortic tissue binding assay. Particulars: 100 μM compound, competition with [14C]4-amino-N-[(1S)-1-cyano-2-(4′-cyanobiphenyl-4-yl)ethyl]tetrahydro-2H-pyran-4-carboxamide, rat aortic homogenate. The protocol:
Test B: In-Vitro Competitive Aortic Tissue Binding Assay
Aortic homogenate was prepared from the thoracic aortae of Han Wistar rats. Freshly isolated thoracic aortae were frozen, and later thawed and stripped of non-elastic material. […] Homogenate concentration was adjusted to 30 mg/mL in Puck's saline, and aliquots were stored at −80° C. until use. Positive and negative control compounds and test compounds were made up to 100 mM in DMSO, and added to 1 mL aliquots of aortic homogenate in Puck's saline for a final concentration of 100 μM. Homogenate samples were pre-incubated with test compounds at 37° C., rotating, overnight. [^14C]4-Amino-N-[(1S)-1-cyano-2-(4′-cyanobiphenyl-4-yl)ethyl]tetrahydro-2H-pyran-4-carboxamide was then added to all samples to a final concentration of 100 μM, and samples were incubated at 37° C., rotating, for a further 2 h. Protein was precipitated from each sample by the addition of 10 mL acetone, pre-chilled to −20° C. Samples were left overnight at −20° C. to allow complete precipitation. […] Precipitate was washed by resuspension in 10 mL 80% methanol in distilled water, and re-pelleted by centrifugation at 4,500× g at 4° C. for 20 min. […] After final wash, precipitate was air-dried, and dissolved overnight in 1 mL NCSII Tissue Solubiliser. 1 mL aliquots of supernatants were added to 5 mL Ultima Gold scintillation fluid (Perkin Elmer, MA, U.S.A.), and 1 mL solubilised pellets were added to 5 mL Hionic-Fluor scintillation fluid (Perkin Elmer, MA, U.S.A.). Radioactivity of samples was determined on a Beckman LS6500 multipurpose scintillation counter (Beckman Coulter, IN, U.S.A.). […] Duplicate samples were tested for each compound on each experimental occasion, and at least two experiments were run for each test compound. […] 1-way ANOVA and Bonferroni's multiple comparison tests were performed to calculate significance of differences from vehicle control.

Series [3] can be described thus: Rat quantitative whole-body autoradiography (QWBA) studies, aortic retention. Format: in vivo.
The conditions of series [4]: literature (Schmidt et al. 1984); cited from earlier work.

Structures are written as SMILES.

Chain of recombinant human DPP1 (rhDPP1) (P53634 231-394): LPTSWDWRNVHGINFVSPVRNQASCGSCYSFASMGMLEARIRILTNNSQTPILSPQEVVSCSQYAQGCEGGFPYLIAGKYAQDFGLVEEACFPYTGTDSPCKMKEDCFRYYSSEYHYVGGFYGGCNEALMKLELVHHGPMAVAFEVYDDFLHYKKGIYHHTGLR
Chain of recombinant human DPP1 (rhDPP1) (P53634 25-134): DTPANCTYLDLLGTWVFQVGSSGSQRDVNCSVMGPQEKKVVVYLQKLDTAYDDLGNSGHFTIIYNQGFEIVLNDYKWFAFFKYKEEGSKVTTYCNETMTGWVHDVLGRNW
Chain of recombinant human DPP1 (rhDPP1) (P53634 395-463): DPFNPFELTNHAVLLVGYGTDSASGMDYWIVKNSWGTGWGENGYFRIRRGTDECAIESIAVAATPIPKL

Turning to `CC[C@@H](/C=C/C(=O)N1CCc2ccccc21)NC(=O)[C@@H]1CNCCCO1.O=C(O)C(F)(F)F` [Example 36], the “DPP1 activity, pIC50” value in series [1] was 8.3.
Take `Cn1c(=O)oc2ccc(-c3ccc(C[C@@H](C#N)NC(=O)C4(N)CCOCC4)cc3)cc21` [WO2010/128324 (Example 17)]: the “Aortic Tissue Binding” value in series [2] is “Strong binder”.
Regarding `N#Cc1ccc(-c2ccc(C[C@@H](C#N)NC(=O)C3(N)CCOCC3)cc2)cc1` [WO2010/128324 (Ex. 3), 4-amino-N-[(1S)-1-cyano-2-(4′-cyanobiphenyl-4-yl)ethyl]tetrahydro-2H-pyran-4-carboxamide], the “Aortic Tissue Binding” value in series [2] was “Strong binder reference”. Also, the “aortic retention in rat QWBA studies” value in series [3] is reported as “high level of aortic retention”.
`Cn1c(=O)oc2ccc(-c3ccc(C[C@@H](C#N)NC(=O)[C@@H]4CCCCN4)cc3)cc21` [WO2009/074829 (Example 96)]: the “Aortic Tissue Binding” value in series [2] is listed as “Medium binder”.
As for `CC(c1ccc(Cl)c(Cl)c1)N1N=C(N)CC1=O` (stereo not drawn) [muzolimine], in series [4], the “retention in the aorta in QWBA studies” value is reported as “retained selectively in the aorta”.
In the case of `Cn1c(=O)oc2ccc(-c3ccc(C[C@@H](C#N)NC(=O)[C@@H]4CNCCCO4)cc3)cc21` [Example 2, (2S)-N-{(1S)-1-Cyano-2-[4-(3-methyl-2-oxo-2,3-dihydro-1,3-benzoxazol-5-yl)phenyl]ethyl}-1,4-oxazepane-2-carboxamide], the “Aortic Tissue Binding” value in series [2] is “No binder”.
With `CC(C)C[C@@H](/C=C/C(=O)N1CCc2ccccc21)NC(=O)[C@@H]1CNCCCO1.O=C(O)C(F)(F)F` [Example 37, (2S)-2-[(2E,4S)-1-(2,3-Dihydro-1H-indol-1-yl)-6-methyl-1-oxohept-2-en-4-yl]-1,4-oxazepane-2-carboxamide trifluoroactetate], in series [1], the “DPP1 activity, pIC50” value came to 8.28.
`N#Cc1ccc(-c2ccc(C[C@@H](C#N)NC(=O)[C@@H]3CCCCN3)cc2)cc1` [WO2009/074829 (Example 24)]: in series [2], the “Aortic Tissue Binding” value is “Binder”.

The record behind these values is patent US10287258B2, “Certain (2S)-N-[(1S)-1-cyano-2-phenylethyl]-1,4-oxazepane-2-carboxamides as dipeptidyl peptidase 1 inhibitors” (AstraZeneca AB, priority 2014, dated 2019).
